From patent publication US20260258035A1, “FIVE-MEMBERED AND SIX-MEMBERED NITROGEN-CONTAINING COMPOUND, AND INTERMEDIATE, PREPARATION METHOD AND USE THEREOF” (HANGZHOU SYNRX THERAPEUTICS BIOMEDICAL TECHNOLOGY CO., LTD., priority 2022, published 2026)

What was measured:
[1] = molecular target: PARG (Homo sapiens, UniProt Q86W56); test: Biochemical assay (PARG, TFMU-ADPr substrate); details: PARG, TFMU-ADPr substrate
[2] = tested on: HCC1806; test: Cell viability assay (CellTiter-Glo); format: cell-based, Human; details: Homo sapiens, HCC1806, 168 h, HCC1806, 7 days, CellTiter-Glo; read-out: IC50 (nM) in cell viability assay

PARG, sequence (Q86W56 whole entry): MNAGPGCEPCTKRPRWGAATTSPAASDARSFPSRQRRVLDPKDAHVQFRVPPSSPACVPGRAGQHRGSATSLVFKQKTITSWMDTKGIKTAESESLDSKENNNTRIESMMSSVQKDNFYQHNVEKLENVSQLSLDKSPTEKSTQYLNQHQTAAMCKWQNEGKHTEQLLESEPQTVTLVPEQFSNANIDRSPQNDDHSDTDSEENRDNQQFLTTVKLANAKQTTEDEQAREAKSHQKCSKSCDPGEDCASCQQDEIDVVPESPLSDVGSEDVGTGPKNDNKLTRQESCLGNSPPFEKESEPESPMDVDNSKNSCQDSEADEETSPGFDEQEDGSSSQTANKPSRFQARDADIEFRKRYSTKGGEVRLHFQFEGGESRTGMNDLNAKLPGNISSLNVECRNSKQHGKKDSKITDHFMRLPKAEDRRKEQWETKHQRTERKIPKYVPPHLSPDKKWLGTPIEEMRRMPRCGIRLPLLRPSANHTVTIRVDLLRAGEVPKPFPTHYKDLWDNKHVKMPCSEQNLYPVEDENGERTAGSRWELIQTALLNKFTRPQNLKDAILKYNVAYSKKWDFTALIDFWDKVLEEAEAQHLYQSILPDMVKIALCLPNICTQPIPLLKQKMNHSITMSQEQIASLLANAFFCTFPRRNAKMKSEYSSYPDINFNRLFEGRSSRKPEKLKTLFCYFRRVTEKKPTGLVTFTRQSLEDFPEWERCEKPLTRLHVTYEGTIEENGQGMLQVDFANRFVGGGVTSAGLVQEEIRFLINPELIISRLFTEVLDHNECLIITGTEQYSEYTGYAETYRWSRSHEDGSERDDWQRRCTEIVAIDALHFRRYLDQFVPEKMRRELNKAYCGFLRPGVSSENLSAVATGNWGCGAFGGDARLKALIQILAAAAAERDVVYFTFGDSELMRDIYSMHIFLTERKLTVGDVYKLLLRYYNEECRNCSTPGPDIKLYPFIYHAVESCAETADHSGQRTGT

Structure (SMILES)	IC50 [1]	IC50 [2]
CC1(NS(=O)(=O)c2cc(N3CCNCC3)c3cnc(-c4nnc(C(F)F)s4)n3c2)CC1 [Example 341, 3-(5-(difluoromethyl)-1,3,4-thiadiazol-2-yl)-N-(1-methylcyclopropyl)-8-(piperazin-1-yl)imidazo[1,5-a]pyridine-6-sulfonamide]	2.42 nM	139 nM
CC1(NS(=O)(=O)c2cc(N3CCO[C@H](CO)C3)c3cnc(-c4nnc(C(F)F)s4)n3c2)CC1 [Example 342, (S)-3-(5-(difluoromethyl)-1,3,4-thiadiazol-2-yl)-8-(2-(hydroxymethyl)morpholino)-N-(1-methylcyclopropyl)imidazo[1,5-a]pyridine-6-sulfonamide]	3.04 nM	297 nM
CC1(NS(=O)(=O)c2cc(N3CCN(C(=O)C4CC(=O)N4)CC3)c3cnc(-c4nnc(C(F)(F)F)s4)n3c2)CC1 (centres unmarked) [Example 343, N-(1-methylcyclopropyl)-8-(4-(4-oxoazetidine-2-carbonyl)piperazin-1-yl)-3-(5-(trifluoromethyl)-1,3,4-thiadiazol-2-yl)imidazo[1,5-a]pyridine-6-sulfonamide]	5.41 nM	852 nM
CC(C)C(=O)N1CCN(c2cc(S(=O)(=O)NC3(C#N)CC3)cn3c(-c4nnc(C(F)(F)F)s4)ncc23)C(C)C1 (centres unmarked) [Example 344, N-(1-cyanocyclopropyl)-8-(4-isobutyryl-2-methylpiperazin-1-yl)-3-(5-(trifluoromethyl)-1,3,4-thiadiazol-2-yl)imidazo[1,5-a]pyridine-6-sulfonamide]	38.3 nM	586 nM
CC1(NS(=O)(=O)c2cc(N3CCN(C(=O)C4(CO)CC4)CC3)c3cnc(-c4nnc(C(F)(F)F)s4)n3c2)CC1 [Example 345, 8-(4-(1-(hydroxymethyl)cyclopropane-1-carbonyl)piperazin-1-yl)-N-(1-methylcyclopropyl)-3-(5-(trifluoromethyl)-1,3,4-thiadiazol-2-yl)imidazo[1,5-a]pyridine-6-sulfonamide]	5.01 nM	374 nM
COCC1(O)CCN(c2cc(S(=O)(=O)NC3(C)CC3)cn3c(-c4nnc(C(F)F)s4)ncc23)CC1 [Example 346, 3-(5-(difluoromethyl)-1,3,4-thiadiazol-2-yl)-8-(4-hydroxy-4-(methoxymethyl)piperidin-1-yl)-N-(1-methylcyclopropyl)imidazo[1,5-a]pyridine-6-sulfonamide]	1.53 nM	109 nM
CC1(NS(=O)(=O)c2cc(N3CCOCC3)c3cnc(-c4nnc(C(F)F)s4)n3c2)CC1 [Example 347, 3-(5-(difluoromethyl)-1,3,4-thiadiazol-2-yl)-N-(1-methylcyclopropyl)-8-morpholinoimidazo[1,5-a]pyridine-6-sulfonamide]	4.64 nM	282 nM
COC1CN(c2cc(S(=O)(=O)NC3(C)CC3)cn3c(-c4nnc(C(F)F)s4)ncc23)CCC1O (centres unmarked) [Example 348, 3-(5-(difluoromethyl)-1,3,4-thiadiazol-2-yl)-8-(4-hydroxy-3-methoxypiperidin-1-yl)-N-(1-methylcyclopropyl)imidazo[1,5-a]pyridine-6-sulfonamide]	1.99 nM	257 nM
CC1(NS(=O)(=O)c2cc(N3CCC(O)C(O)C3)c3cnc(-c4nnc(C(F)F)s4)n3c2)CC1 (centres unmarked) [Example 349, 3-(5-(difluoromethyl)-1,3,4-thiadiazol-2-yl)-8-(3,4-dihydroxypiperidin-1-yl)-N-(1-methylcyclopropyl)imidazo[1,5-a]pyridine-6-sulfonamide]	3.98 nM	455 nM
COC1(CN2CCN(c3cc(S(=O)(=O)NC4(C)CC4)cn4c(-c5nnc(C(F)F)s5)ncc34)CC2)CC1 [Example 350, 3-(5-(difluoromethyl)-1,3,4-thiadiazol-2-yl)-8-(4-((1-methoxycyclopropyl)methyl)piperazin-1-yl)-N-(1-methylcyclopropyl)imidazo[1,5-a]pyridine-6-sulfonamide]	20 nM	713 nM
CN1CCC(F)(F)C1C(=O)N1CCN(c2cc(S(=O)(=O)NC3(C)CC3)cn3c(-c4nnc(C(F)(F)F)s4)ncc23)CC1 (centres unmarked) [Example 351, 8-(4-(3,3-difluoro-1-methylpyrrolidine-2-carbonyl)piperazin-1-yl)-N-(1-methylcyclopropyl)-3-(5-(trifluoromethyl)-1,3,4-thiadiazol-2-yl)imidazo[1,5-a]pyridine-6-sulfonamide]	4.13 nM	163 nM
CC1(NS(=O)(=O)c2cc(N3CCN(C(=O)[C@H]4CC(F)(F)CN4)CC3)c3cnc(-c4nnc(C(F)(F)F)s4)n3c2)CC1 [Example 352, (R)-8-(4-(4,4-difluoropyrrolidine-2-carbonyl)piperazin-1-yl)-N-(1-methylcyclopropyl)-3-(5-(trifluoromethyl)-1,3,4-thiadiazol-2-yl)imidazo[1,5-a]pyridine-6-sulfonamide]	15.3 nM	561 nM
CN1CC(F)(F)C[C@@H]1C(=O)N1CCN(c2cc(S(=O)(=O)NC3(C)CC3)cn3c(-c4nnc(C(F)(F)F)s4)ncc23)CC1 [Example 353, (R)-8-(4-(4,4-difluoro-1-methylpyrrolidine-2-carbonyl)piperazin-1-yl)-N-(1-methylcyclopropyl)-3-(5-(trifluoromethyl)-1,3,4-thiadiazol-2-yl)imidazo[1,5-a]pyridine-6-sulfonamide]	12.6 nM	434 nM
C[C@H]1CN(c2cc(S(=O)(=O)NC3(C)COC3)cn3c(-c4nnc(C(F)F)s4)ncc23)C[C@H](C)O1 [Example 354, 3-(5-(difluoromethyl)-1,3,4-thiadiazol-2-yl)-8-((2S,6S)-2,6-dimethylmorpholino)-N-(3-methyloxetan-3-yl)imidazo[1,5-a]pyridine-6-sulfonamide]	0.27 nM	65.8 nM
C[C@H]1CN(c2cc(S(=O)(=O)NC3(C)COC3)cn3c(-c4nnc(C(F)(F)F)s4)ncc23)C[C@H](C)O1 [Example 355, 8-((2S,6S)-2,6-dimethylmorpholino)-N-(3-methyloxetan-3-yl)-3-(5-(trifluoromethyl)-1,3,4-thiadiazol-2-yl)imidazo[1,5-a]pyridine-6-sulfonamide]	0.5 nM	85 nM
COCC1CN(c2cc(S(=O)(=O)NC3(CF)COC3)cn3c(-c4nnc(C(F)F)s4)ncc23)CCN1 (centres unmarked) [Example 356, 3-(5-(difluoromethyl)-1,3,4-thiadiazol-2-yl)-N-(3-(fluoromethyl)oxetan-3-yl)-8-(3-(methoxymethyl)piperazin-1-yl)imidazo[1,5-a]pyridine-6-sulfonamide]	6.31 nM	305 nM
COCC1CN(c2cc(S(=O)(=O)NC3(C)COC3)cn3c(-c4nnc(C(F)F)s4)ncc23)CCN1 (centres unmarked) [Example 357, 3-(5-(difluoromethyl)-1,3,4-thiadiazol-2-yl)-8-(3-(methoxymethyl)piperazin-1-yl)-N-(3-methyloxetan-3-yl)imidazo[1,5-a]pyridine-6-sulfonamide]	8.31 nM	208 nM
COCC1CN(c2cc(S(=O)(=O)NC3(C)COC3)cn3c(-c4nnc(C(F)(F)F)s4)ncc23)CCN1 (centres unmarked) [Example 358, 8-(3-(methoxymethyl)piperazin-1-yl)-N-(3-methyloxetan-3-yl)-3-(5-(trifluoromethyl)-1,3,4-thiadiazol-2-yl)imidazo[1,5-a]pyridine-6-sulfonamide]	15.8 nM	261 nM
C[C@H]1CN(c2cc(S(=O)(=O)NC3(CF)COC3)cn3c(-c4nnc(C(F)F)s4)ncc23)C[C@H](C)N1 [Example 359, 3-(5-(difluoromethyl)-1,3,4-thiadiazol-2-yl)-8-((3S,5S)-3,5-dimethylpiperazin-1-yl)-N-(3-(fluoromethyl)oxetan-3-yl)imidazo[1,5-a]pyridine-6-sulfonamide]	1.44 nM	47 nM
COCC1CN(c2cc(S(=O)(=O)NC3(C)COC3)cn3c(-c4nnc(C(F)(F)F)s4)cnc23)CCN1 (centres unmarked) [Example 360, 8-(3-(methoxymethyl)piperazin-1-yl)-N-(3-methyloxetan-3-yl)-3-(5-(trifluoromethyl)-1,3,4-thiadiazol-2-yl)imidazo[1,2-a]pyridine-6-sulfonamide]	36.3 nM	637 nM
CC(C)OCC1CN(c2cc(S(=O)(=O)NC3(C)COC3)cn3c(-c4nnc(C(F)F)s4)ncc23)CCN1 (centres unmarked) [Example 361, 3-(5-(difluoromethyl)-1,3,4-thiadiazol-2-yl)-8-(3-(isopropoxymethyl)piperazin-1-yl)-N-(3-methyloxetan-3-yl)imidazo[1,5-a]pyridine-6-sulfonamide]	18.2 nM	642 nM
CCNC(=O)N1CCN(c2cc(S(=O)(=O)NC3(C)COC3)cn3c(-c4nnc(C(F)(F)F)s4)ncc23)CC1 [Example 362, N-ethyl-4-(6-(N-(3-methyloxetan-3-yl)sulfamoyl)-3-(5-(trifluoromethyl)-1,3,4-thiadiazol-2-yl)imidazo[1,5-a]pyridin-8-yl)piperazine-1-carboxamide]	6.31 nM	158 nM
CC1(NS(=O)(=O)c2cc(N3CCN4C(=O)COCC4C3)c3cnc(-c4nnc(C(F)(F)F)s4)n3c2)COC1 (centres unmarked) [Example 363, N-(3-methyloxetan-3-yl)-8-(4-oxohexahydropyrazino[2,1-c][1,4]oxazin-8(1H)-yl)-3-(5-(trifluoromethyl)-1,3,4-thiadiazol-2-yl)imidazo[1,5-a]pyridine-6-sulfonamide]	1.71 nM	63 nM
CC1(NS(=O)(=O)c2cc(N3CCN(C4CC4)CC3)c3cnc(-c4nnc(C(F)F)s4)n3c2)COC1 [Example 364, 8-(4-cyclopropylpiperazin-1-yl)-3-(5-(difluoromethyl)-1,3,4-thiadiazol-2-yl)-N-(3-methyloxetan-3-yl)imidazo[1,5-a]pyridine-6-sulfonamide]	41.4 nM	791 nM
CC1(NS(=O)(=O)c2cc(N3CCNC4(CC4)C3)c3cnc(-c4nnc(C(F)F)s4)n3c2)COC1 [Example 365, 3-(5-(difluoromethyl)-1,3,4-thiadiazol-2-yl)-N-(3-methyloxetan-3-yl)-8-(4,7-diazaspiro[2.5]octan-7-yl)imidazo[1,5-a]pyridine-6-sulfonamide]	8.58 nM	1070 nM
